Key:
[1] = In vitro fluorescence quenching by I^- (Stern-Volmer); format: physicochemical
Protocol: (§1) Computations. In vitro fluorescence quenching studies were carried out at peak excitation and emission wavelengths. Microliter aliquots of the sodium salt of the quenching anion (1 M) were added to indicator solution in 5 mM sodium phosphate (pH 7.2, unless indicated otherwise). Fluorescence intensities in the absence (Fo) and presence (F) of quencher anion ([Q]) were measured to give the Stem-Volmer constant (Kq) as defined by: Fo /F=1+Kq [Q].

[2] = In vitro fluorescence quenching by Cl^- (Stern-Volmer); format: physicochemical; settings: in water (or saline)
Protocol: as §1

[3] = In vitro fluorescence quenching by other ions (Stern-Volmer); format: physicochemical
Protocol: as §1

[4] = Fluorescence lifetime in water; format: physicochemical
Protocol: (§2) Time resolved fluorescence measurements. Fluorescence lifetime and anisotropy decay measurements were carried out in the frequency domain by cuvette fluorimetry using a Fourier transform fluorimeter (48000 MHF, SLM Instruments, Urbana, Ill.) or by fluorescence microscopy using epifluorescence microscope optics in place of the cuvette compartment (Verkman et al., 1991). For microscopy measurements, impulse-modulated vertically polarized light (442 nm, He--Cd laser 35 mwatts) was reflected onto the sample by a 510 nm dichroic mirror and objective lens; emitted fluorescence was filtered by a 515 nm barrier filter and passed through a rotatable analyzing calcite polarizer. In some experiments, a biconcave lens was introduced just in front of the dichroic mirror to diverge beam diameter in the focal plane to ~40 mm.
Analysis of lifetime and time-resolved anisotropy was performed by a comparative approach. Generally six pairs of measurements (each acquisition 8 s) were obtained, comparing sample and reference (fluorescein in 0.1 N NaOH, lifetime 4.0 ns) for measurement of lifetime, and parallel and perpendicular orientations of the emission polarizer for measurement of anisotropy decay. […] Median phase and modulation values for paired data were analyzed by nonlinear least-squares for determination of lifetimes and rotational correlation times.

cells [5] = assay: Fluorescence lifetime in cells (frequency-domain microfluorimetry); format: cell-based
Protocol: as §2, with “In some experiments, a biconcave lens was introduced just in front of the dichroic mirror to diverge beam diameter in the focal plane to ~40 mm.” left out
Analysis of lifetime and time-resolved anisotropy was performed by a comparative approach. […] Median phase and modulation values for paired data were analyzed by nonlinear least-squares for determination of lifetimes and rotational correlation times.
A calibration study was done to determine the intracellular sensitivity of LZQ to I^-. […] LZQ fluorescence changed reversibly in response to changes in solution I^-. […] Fluorescence lifetime analysis was done to determine whether LZQ fluorescence is quenched in cells by substances other than I^-. Nanosecond lifetimes were measured by frequency-domain microfluorimetry. […]

cells [6] = assay: Indicator leakage / cytoplasmic retention; format: cell-based
Protocol: (§3) Fluorescence microscopy. Fluorescence microscopy measurements were performed as described previously (Chao et al., 1989). Briefly, coverglasses were mounted in a 0.5 ml perfusion chamber in which the cell-free glass surface made contact with an oil immersion objective (Nikon ×40 magnification, numerical aperture[NA] 1.3). Cell fluorescence was excited at 365±10 nm (SPQ) or 420 nm±10 nm (LZQ and LMQ). Emitted fluorescence was detected by a photomultiplier in a Nikon inverted epifluorescence microscope using a 410 nm dichroic mirror and 420 nm barrier filter (SPQ) or a 455 nm dichroic mirror and 500 nm barrier filter (LZQ). For cells colabeled with SPQ and LZQ, SPQ fluorescence was excited at 365±10 nm and detected using a 410 nm dichroic mirror and 455±30 nm interference filter. Confocal fluorescence micrographs were obtained using a Nipkow wheel confocal microscope and cooled CCD camera detector using a ×60 oil immersion objective (Nikon, NA 1.4). LZQ-labeled cells were viewed using a fluorescein filter set (excitation 480±15 nm, emission 520±20 nm).
(§4) A time course of LZQ fluorescence during perfusion with physiological saline at 23° C. was generated. A small group of 20-30 cells was illuminated continuously and fluorescence was detected by a photomultiplier using an ×40, 1.3 NA objective. Cellular fluorescence decreased slowly at a rate of 2.5% per hour. To determine the relative contributions of indicator leakage vs. photobleaching to the slow decline in fluorescence, the perfused cells were illuminated intermittently. […] Background fluorescence (in non-labeled cells) was generally <5% of the fluorescence of LZQ-labeled cells.

cells [7] = assay: Photobleaching in cells; format: cell-based
Protocol: as §3, §4

CFTR = assay: Colabeling: effect of LZQ on SPQ fluorescence / CFTR-mediated Cl^- transport; format: cell-based; settings: Cl^-/NO3^- exchange; SPQ alone vs. colabeled with LZQ
Protocol: as §3, with “LZQ-labeled cells were viewed using a fluorescein filter set (excitation 480±15 nm, emission 520±20 nm).” left out
Transport measurements. […] For fluorescence microscopy, glass coverslips were then mounted in a perfusion chamber (flow ~2 ml/min) in which solutions were exchanged using a 4-way valve. For microplate reader measurements, cells in 96-well plates were bathed in […] of the `1st buffer` (see Table 3) and […] of the Cl^- -containing, I^- -free solution was injected into the well to drive Cl^- /I^- exchange (protocol 1). […]

With `[O-]c1nc2c(N[C@@H]3O[C@H](CO)[C@@H](O)[C@H]3O)ncnc2[n+]2ccccc12` [I, 4-(β-D-ribofuranosylamino)-pyrido [2,1-h] pteridin-11-ium-5-olate] the “Ksv (I^-), Stern Volmer quenching constant” value ([1]; Table 4) was 60 M⁻¹, the “Stern-Volmer constant, quenching by I^-” value ([1]; in water (or saline)) was 60 M⁻¹ and the “effect of pH on I^- sensitivity” value ([1]; pH 4.5-8) was “not affected”. For the same compound, the “Stern-Volmer constant, Cl^-” value [2] was under 1 M⁻¹, the “Stern-Volmer constant, K^+” value ([3]; K^+) was under 1 M⁻¹ and the “Stern-Volmer constant, NO3^-” value ([3]; NO3^-) was under 1 M⁻¹. The “Stern-Volmer constant, Na^+” value ([3]; Na^+) was under 1 M⁻¹, the “Stern-Volmer constant, acetate” value ([3]; acetate) was under 1 M⁻¹ and the “Stern-Volmer constant, phosphate” value ([3]; phosphate) was under 1 M⁻¹. The fluorescence lifetime ([4]; in water, absence of I^-) was 7.1 ns, the “quenching mechanism (lifetime decrease with [I^-])” value ([4]; increasing [I^-]) was “collisional mechanism” and the “quenching by intracellular components” value (cells [5]) was “quenched little by intracellular components”. For the same compound, the “fluorescence lifetime in cells” value (cells [5]; in the absence of I^-, n=4) was 6.5±0.3 ns, the “cytoplasmic retention vs. LMQ” value (cells [6]) was “better cytoplasmic retention properties than LMQ” and the “leakage out of cells” value (cells [6]; microplate section) was “low rate”. For the same compound, the “rate of decrease of cellular fluorescence” value (cells [6]; perfusion with physiological saline, 23° C.) was 2.5 % per hour, the “Cellular properties: photobleaching” value (cells [7]; Table 4) was “slow” and the “photobleaching, intermittent vs. continuous illumination” value (cells [7]; low light level conditions) was “absence of photobleaching”. For the same compound, the “effect on time course of SPQ fluorescence / CFTR-mediated Cl^- transport” value (CFTR) was “did not affect the time course of SPQ fluorescence”.

From patent publication US6201116A, “Halide indicators” (The Regents of the University of California, priority 1999, dated 2001)
